We go through one compound from US8969407B2, “Administration of coumarin, butylated hydroxyanisole and ethoxyquine for the treatment of canities” (L'Oreal, priority 2006, dated 2015).

Molecules are shown by their SMILES.

The test system of this assay is normal human melanocytes (NHM). The assay is described as follows: Measurement of reactive oxygen species (ROS) generated by an H2O2 stress in cultured normal human melanocytes. In kind it is cell-based. Particulars: NHM pretreated 12 h/18 h at 37° C. with compound; 250 μM H2O2; fluorescence after 15 minutes; FIG. 1. How it is done: 1-A-1. Protocol for Measuring the Reactive Oxygen Species (ROS) Generated by an H2O2 Stress in Cultured Normal Human Melanocytes (NHM): The normal human melanocytes (NHMs) were inoculated at DO at the density of 4×10^4 cells/cm^2. At D1, the culture medium was replaced with the 10 μM solution of 6-carboxy-2',7'-dichlorodihydrofluorescein diacetate, di[acetoxymethyl ester] in PBS (H2DCFDA, C2938, Molecular Probes). After 20 minutes, the H2DCFDA solution was replaced with the culture medium. The NHMs were left for 30 minutes before adding the H2O2 solution (250 μM). The fluorescence was measured after 15 minutes in a fluoroscan (excitation: 485 nm, emission: 538 nm). The compounds studied were used depending on their properties (concentration, preincubation time). N-Acetylcysteine ([…]-Sigma) was used as a reference molecule. The melanocytes were pretreated, 12 h/18 h at 37° C., with the compound studied in the culture medium, before being brought into contact for 20 minutes with H2DCFDA (10 μM in PBS). […] The fluorescence was measured after 15 minutes in a fluoroscan (excitation: 485 nm, emission: 538 nm). The results represent the crude fluorescence data, from which the autofluorescence values of “blank” cells, expressed in fluorescence units (fu), obtained during a representative experiment, have been deducted.

With `CCOc1ccc2c(c1)C(C)=CC(C)(C)N2` [ethoxyquine, 6-ethoxy-2,2,4-trimethyl-1H-quinoline], the “ROS induced by H2O2 (H2DCFDA fluorescence)” value is reported as “decrease of the reactive oxygen species”.
